Data on 17 molecules can be found in patent publication US20230158157A1, “POTENT AND SELECTIVE DEGRADERS OF ALK” (DANA-FARBER CANCER INSTITUTE, INC., priority 2020, published 2023).

Molecules are shown by their SMILES. Like-named read-outs stand apart in the source and are kept apart here.

One assay has as its target T1, EML4-ALK (Homo sapiens, UniProt Q9UM73).
T1 construct: endogenous in cells; host or cells: H3122 (NSCLC), single-cell clone after CRISPR knock-in of HiBit; the other entry of the earlier key: EML4 (Q9HC35, Echinoderm microtubule-associated protein-like 4)
Nature of the assay: EML4-ALK HiBit degradation assay in CRISPR-tagged H3122 cells (Nano-Glo HiBit Lytic Detection). The format is cell-based. How it is done: NSCLC cell line H3122 was subjected to CRISPR to express EML4-ALK with HiBit-tag on its c-terminal. Single-cell clone was selected and expanded for the following assays that monitor endogenous EML4-ALK level in high throughput manner. Cells were seeded in 384-well white Tissue-culture plates at 3000 cells/well for 8 hours. […] HiBit signal was assessed using Nano-Glo® HiBit Lytic Detection System (Promega™). Degrader-treated was normalized by DMSO-treated controls and DC50 and Dmax were generated by GraphPad Prism® 8.0.
NSCLC cell line H3122 was subjected to CRISPR to express EML4-ALK with HiBit-tag on its c-terminus. A single-cell clone was selected and expanded for the following assays that monitor endogenous EML4-ALK level in high throughput manner. Cells were seeded in 384-well white Tissue-culture plates at 3000 cells/well for 8 hours. […] HiBit signal was assessed using Nano-Glo® HiBit Lytic Detection System (Promega™). Degrader-treated cells were normalized by DMSO-treated controls and DC50 and Dmax were generated by GraphPad Prism® 8.0.
NSCLC cell line H3122 was subjected to CRISPR to express EML4-ALK with HiBit-tag on its C-terminus. A single-cell clone was selected and expanded for the following assays that monitor endogenous EML4-ALK level in high throughput manner. Cells were seeded in 384-well white Tissue-culture plates at 3000 cells/well for 8 hours. […] HiBit signal was assessed using Nano-Glo® HiBit Lytic Detection System (Promega™). Degrader-treated cells were normalized by DMSO-treated controls and DC50 and Dmax were generated by GraphPad Prism® 8.0.
Background: With HiBiT, luminescence reflects the tagged protein that the partner subunit can reach.

A further assay concerns H3122 cells. Nature of the assay: CTG. Format: cell-based.
Where [1] appears, read: NCI-H3122, Table 1, first Dmax column, H3122 EML4-ALK-HiBit, 16 hours, read-out: Degradation Dmax.
Setting [2] is: NCI-H3122, Table 1, second Dmax column, H3122 EML4-ALK-HiBit, 16 hours, read-out: Degradation Dmax.
[3] abbreviates: NCI-H3122, Table 1, average Dmax, read-out: Degradation Avg. Dmax.
Where [4] appears, read: Table 1, first DC50 column, H3122 EML4-ALK-HiBit, 16 hours, read-out: Degradation DC50.
Where [5] appears, read: Table 1, second DC50 column, H3122 EML4-ALK-HiBit, 16 hours, read-out: Degradation DC50.
The mark [6] stands for this setting: Table 1, average DC50, read-out: Degradation Avg. DC50.
The mark [7] stands for this setting: Homo sapiens, NCI-H3122, Table 1, read-out: CTG IC50.
Where [8] appears, read: Homo sapiens, NCI-H3122, Table 2, read-out: CTG IC50.
Setting [9] is: NCI-H3122, Table 2, first Dmax column, H3122 EML4-ALK-HiBit, 16 hours, read-out: Degradation Dmax.
The mark [10] stands for this setting: Table 2, first DC50 column, H3122 EML4-ALK-HiBit, 16 hours, read-out: Degradation DC50.

T1 sequence (Q9UM73 with tags, fused parts or gaps): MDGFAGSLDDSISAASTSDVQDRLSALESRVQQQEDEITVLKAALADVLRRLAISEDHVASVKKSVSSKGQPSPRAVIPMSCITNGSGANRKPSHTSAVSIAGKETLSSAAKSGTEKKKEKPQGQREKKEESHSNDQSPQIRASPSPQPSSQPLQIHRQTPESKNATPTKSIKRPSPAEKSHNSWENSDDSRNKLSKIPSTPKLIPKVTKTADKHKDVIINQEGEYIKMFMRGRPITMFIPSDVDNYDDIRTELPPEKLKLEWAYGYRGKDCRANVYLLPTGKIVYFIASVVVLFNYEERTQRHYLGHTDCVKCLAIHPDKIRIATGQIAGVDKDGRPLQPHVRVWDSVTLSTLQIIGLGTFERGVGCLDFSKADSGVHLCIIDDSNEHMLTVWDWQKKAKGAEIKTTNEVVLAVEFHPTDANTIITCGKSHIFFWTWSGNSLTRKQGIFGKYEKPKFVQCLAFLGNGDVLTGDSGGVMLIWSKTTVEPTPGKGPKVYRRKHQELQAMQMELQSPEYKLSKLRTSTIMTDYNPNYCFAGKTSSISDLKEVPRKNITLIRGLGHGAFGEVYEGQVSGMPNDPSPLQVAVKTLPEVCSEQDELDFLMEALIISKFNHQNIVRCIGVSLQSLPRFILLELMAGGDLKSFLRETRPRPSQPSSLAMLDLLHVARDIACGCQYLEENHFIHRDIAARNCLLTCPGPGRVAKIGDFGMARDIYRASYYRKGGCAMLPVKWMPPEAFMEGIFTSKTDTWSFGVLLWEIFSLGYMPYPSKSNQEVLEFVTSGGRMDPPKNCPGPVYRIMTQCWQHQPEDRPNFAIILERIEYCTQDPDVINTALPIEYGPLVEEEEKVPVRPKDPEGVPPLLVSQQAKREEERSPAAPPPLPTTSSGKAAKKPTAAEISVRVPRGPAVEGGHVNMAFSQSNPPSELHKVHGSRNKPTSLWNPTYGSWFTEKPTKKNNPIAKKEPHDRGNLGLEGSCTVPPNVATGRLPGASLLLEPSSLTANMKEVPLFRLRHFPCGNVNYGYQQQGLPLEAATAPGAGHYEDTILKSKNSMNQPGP

The term Dmax denotes the greatest extent of degradation seen. What is called DC50 is the midpoint of the concentration-degradation curve. By IC50 is commonly meant the midpoint of a concentration-inhibition curve. Consider `CN[C@@H](C)C(=O)N[C@H](C(=O)N1Cc2cc(OCCCCCNCCc3cc(OC)c(Nc4ncc(Cl)c(Nc5ccccc5S(=O)(=O)C(C)C)n4)cc3C)ccc2C[C@H]1C(=O)N[C@H]1CCCc2ccccc21)C(C)(C)C` [Compound 39], for which the Dmax was found to be 79.1% at EML4-ALK (setting [1]), 99.3% at EML4-ALK (setting [2]) and 89.2% on EML4-ALK (setting [3]). The DC50 at EML4-ALK (setting [4]) amounted to 402 nM; at EML4-ALK (setting [5]), 184 nM; at EML4-ALK (setting [6]) it was 293 nM. For the same molecule, the IC50 with H3122 cells (Homo sapiens, NCI-H3122, Table 1, unheaded column beside IC50 (nM), read-out: CTG IC50) stood at 414 nM; in the assay with H3122 cells (setting [7]) it was 1480 nM.
Regarding `COc1cc(CCNCCCC(=O)N[C@H](C(=O)N2C[C@H](O)C[C@H]2C(=O)N[C@@H](C)c2ccc(-c3scnc3C)cc2)C(C)(C)C)c(C)cc1Nc1ncc(Cl)c(Nc2ccccc2S(=O)(=O)C(C)C)n1` [Compound 43], the Dmax at EML4-ALK (setting [1]) and on EML4-ALK (setting [3]) was 38.1% throughout. Further, the DC50 on EML4-ALK (setting [4]) and on EML4-ALK (setting [6]) was 1230 nM throughout. Also, the IC50 in the assay with H3122 cells (setting [7]) worked out at 289 nM.
`COc1cc(CCNCCCCCC(=O)N[C@H](C(=O)N2C[C@H](O)C[C@H]2C(=O)N[C@@H](C)c2ccc(-c3scnc3C)cc2)C(C)(C)C)c(C)cc1Nc1ncc(Cl)c(Nc2ccccc2S(=O)(=O)C(C)C)n1` [Compound 44]: the Dmax at EML4-ALK (setting [1]) and at EML4-ALK (setting [3]) was 53% in each case. The DC50 on EML4-ALK (setting [4]) and at EML4-ALK (setting [6]) was 1250 nM throughout. The IC50 in the assay with H3122 cells (setting [7]) came out at 252 nM.
`COc1cc(CCNCCCCCCCC(=O)N[C@H](C(=O)N2C[C@H](O)C[C@H]2C(=O)N[C@@H](C)c2ccc(-c3scnc3C)cc2)C(C)(C)C)c(C)cc1Nc1ncc(Cl)c(Nc2ccccc2S(=O)(=O)C(C)C)n1` [Compound 45]: the Dmax on EML4-ALK (setting [1]) and on EML4-ALK (setting [3]) was 51% each time. Further, the DC50 on EML4-ALK (setting [4]) and on EML4-ALK (setting [6]) was 390 nM throughout. In the assay on H3122 cells (setting [7]), the IC50 came to 106 nM.
For `COc1cc(CCNCCOCCOCCC(=O)N[C@H](C(=O)N2C[C@H](O)CC2C(=O)N[C@@H](C)c2ccc(-c3scnc3C)cc2)C(C)(C)C)c(C)cc1Nc1ncc(Cl)c(Nc2ccccc2S(=O)(=O)C(C)C)n1` (stereo partly shown) [Compound 46], the Dmax came to 58% at EML4-ALK (setting [1]), 34.5% on EML4-ALK (setting [2]) and 51.3% at EML4-ALK (setting [3]). Further, the DC50 at EML4-ALK (setting [4]) turned out to be 1390 nM; on EML4-ALK (setting [5]), 206 nM; at EML4-ALK (setting [6]), 801 nM. In addition, in the assay on H3122 cells (setting [7]), the IC50 was determined as 316 nM.
Turning to `COc1cc(CCNCCOCCOCCOCCC(=O)N[C@H](C(=O)N2C[C@H](O)C[C@H]2C(=O)N[C@@H](C)c2ccc(-c3scnc3C)cc2)C(C)(C)C)c(C)cc1Nc1ncc(Cl)c(Nc2ccccc2S(=O)(=O)C(C)C)n1` [Compound 47], the Dmax is 81.9% on EML4-ALK (setting [1]), 95.6% on EML4-ALK (setting [2]) and 88.7% at EML4-ALK (setting [3]). In addition, the figures for the half-maximal degradation concentration (DC50) at EML4-ALK (setting [4]), at EML4-ALK (setting [5]) and at EML4-ALK (setting [6]) were 1100 nM, 347 nM and 723 nM, respectively. The half-inhibitory concentration (IC50) in the assay on H3122 cells (setting [7]) came to 285 nM.
On to `COc1cc(CCNCCCCCSC(C)(C)[C@H](NC(C)=O)C(=O)N2C[C@H](O)C[C@H]2C(=O)N[C@@H](C)c2ccc(-c3scnc3C)cc2)c(C)cc1Nc1ncc(Cl)c(Nc2ccccc2S(=O)(=O)C(C)C)n1` [Compound 48], for which the Dmax at EML4-ALK (setting [1]) was 77.2%; on EML4-ALK (setting [2]), 108%; at EML4-ALK (setting [3]) it was 92.8%. Further, the DC50 on EML4-ALK (setting [4]) turned out to be 961 nM; at EML4-ALK (setting [5]), 611 nM; at EML4-ALK (setting [6]), 786 nM. For the same molecule, the IC50 with H3122 cells (setting [7]) was 388 nM.
With `COc1cc(CCN(C)CCCCCNc2cccc3c2C(=O)N(C2CCC(=O)NC2=O)C3=O)c(C)cc1Nc1ncc(Cl)c(Nc2ccccc2S(=O)(=O)C(C)C)n1` (stereo not shown) [Compound 50], the DC50 on EML4-ALK (setting [4]) stood at 57 nM; on EML4-ALK (setting [5]), 24 nM; at EML4-ALK (setting [6]), 41 nM. Moreover, the IC50 in the assay with H3122 cells (Table 1, read-out: CTG IC50) is 20.6 nM.
Consider `COc1cc(CCN(C)C(=O)CCCCCNC(=O)COc2cccc3c2C(=O)N(C2CCC(=O)NC2=O)C3=O)c(C)cc1Nc1ncc(Cl)c(Nc2ccccc2P(C)(C)=O)n1` (stereo not shown) [Compound 58], for which, in the assay with H3122 cells (setting [8]), the IC50 was greater than 10000 nM.
For the molecule `COc1cc(CCN(C)C(=O)CCOCCOCCNC(=O)COc2cccc3c2C(=O)N(C2CCC(=O)NC2=O)C3=O)c(C)cc1Nc1ncc(Cl)c(Nc2ccccc2P(C)(C)=O)n1` (stereo not shown) [Compound 60], the IC50 with H3122 cells (Table 2, read-out: CTG IC50) was greater than 10000 nM.
As for `COc1cc(CCN(C)C(=O)CCCNc2cccc3c2C(=O)N(C2CCC(=O)NC2=O)C3=O)c(C)cc1Nc1ncc(Cl)c(Nc2ccccc2P(C)(C)=O)n1` (stereo not shown) [Compound 64], the concentration for half-maximal inhibition (IC50) in the assay on H3122 cells (setting [8]) came out at 301 nM.
In the case of `COc1cc(CCN(C)C(=O)CCOCCOCCNc2cccc3c2C(=O)N(C2CCC(=O)NC2=O)C3=O)c(C)cc1Nc1ncc(Cl)c(Nc2ccccc2P(C)(C)=O)n1` (stereo not shown) [Compound 67], the IC50 with H3122 cells (setting [8]) was 2290 nM.
Take `CC[C@@H](NC(=O)[C@@H]1C[C@H](NC(=O)CCCCCCC(=O)N(C)CCc2cc(OC)c(Nc3ncc(Cl)c(Nc4ccccc4P(C)(C)=O)n3)cc2C)CN1C(=O)[C@@H](NC(=O)[C@H](C)NC)C(C)(C)C)c1ccccc1` [Compound 74]: the Dmax worked out at 47.1% on EML4-ALK (setting [9]); 47.2% on EML4-ALK (NCI-H3122, Table 2, second Dmax column, H3122 EML4-ALK-HiBit, 16 hours, read-out: Degradation Dmax); 47.1% at EML4-ALK (NCI-H3122, Table 2, average Dmax, read-out: Degradation Avg. Dmax). Besides, the DC50 at EML4-ALK (setting [10]) is 506 nM; on EML4-ALK (Table 2, second DC50 column, H3122 EML4-ALK-HiBit, 16 hours, read-out: Degradation DC50), 480 nM; on EML4-ALK (Table 2, average DC50, read-out: Degradation Avg. DC50), 490 nM.
Turning to `COc1cc(CCNCCCCCC#Cc2cccc3c2C(=O)N(C2CCC(=O)NC2=O)C3=O)c(C)cc1Nc1ncc(Cl)c(Nc2ccccc2S(=O)(=O)C(C)C)n1` (stereo not shown) [compound 49, 4-(7-((4-((5-chloro-4-((2-(isopropylsulfonyl)phenyl)amino)pyrimidin-2-yl)amino)-5-methoxy-2-methylphenethyl)amino)hept-1-yn-1-yl)-2-(2,6-dioxopiperidin-3-yl)isoindoline-1,3-dione], the concentration for half-maximal inhibition (IC50) in the assay with H3122 cells (Homo sapiens, NCI-H3122, read-out: CTG IC50) came out at 96.3 nM; in the assay with H3122 cells (setting [7]) it was 66.9 nM.
As for `COc1cc(CCN(C)C(=O)CCCCCCCC(=O)N[C@H](C(=O)N2C[C@H](O)C[C@H]2C(=O)N[C@@H](C)c2ccc(-c3scnc3C)cc2)C(C)(C)C)c(C)cc1Nc1ncc(Cl)c(Nc2ccccc2P(C)(C)=O)n1` [compound 69, N^1-(4-((5-chloro-4-((2-(dimethylphosphoryl)phenyl)amino)pyrimidin-2-yl)amino)-5-methoxy-2-methylphenethyl)-N^9-((S)-1-((2S,4R)-4-hydroxy-2-(((S)-1-(4-(4-methylthiazol-5-yl)phenyl)ethyl)carbamoyl)pyrrolidin-1-yl)-3,3-dimethyl-1-oxobutan-2-yl)-N^1-methylnonanediamide], the IC50 with H3122 cells (setting [8]) came to 477 nM.
As for `COc1cc(CCN(C)C(=O)CCCCCCC(=O)N[C@H](C(=O)N2C[C@H](O)CC2C(=O)N[C@@H](C)c2ccc(-c3scnc3C)cc2)C(C)(C)C)c(C)cc1Nc1ncc(Cl)c(Nc2ccccc2P(C)(C)=O)n1` (stereo partly drawn) [compound 70, N^1-(4-((5-chloro-4-((2-(dimethylphosphoryl)phenyl)amino)pyrimidin-2-yl)amino)-5-methoxy-2-methylphenethyl)-N^8-((S)-1-((2S,4R)-4-hydroxy-2-(((S)-1-(4-(4-methylthiazol-5-yl)phenyl)ethyl)carbamoyl)pyrrolidin-1-yl)-3,3-dimethyl-1-oxobutan-2-yl)-N′-methyloctanediamide], in the assay on H3122 cells (setting [8]), the IC50 was found to be 371 nM.
Take `CC[C@@H](NC(=O)[C@@H]1C[C@H](NC(=O)CCCCCCCC(=O)N(C)CCc2cc(OC)c(Nc3ncc(Cl)c(Nc4ccccc4P(C)(C)=O)n3)cc2C)CN1C(=O)[C@@H](NC(=O)[C@H](C)NC)C(C)(C)C)c1ccccc1` [compound 75, N^1-(4-((5-chloro-4-((2-(dimethylphosphoryl)phenyl)amino)pyrimidin-2-yl)amino)-5-methoxy-2-methylphenethyl)-N^9-((3S,5S)-1-((S)-3,3-dimethyl-2-((S)-2-(methylamino)propanamido)butanoyl)-5-(((R)-1-phenylpropyl)carbamoyl)pyrrolidin-3-yl)-N^1-methylnonanediamide]: the Dmax on EML4-ALK (setting [9]) was 42.1%. On EML4-ALK (setting [10]), the DC50 is 381 nM.
